In PMC7031696 (Cell chemical biology, 2019):

System: 3D7-MR4 trophozoite parasite-infected RBCs
Assay: Metabolomic profiling (hydrophilic metabolite changes, UHPLC-MS)
Assay type: cell-based, Plasmodium falciparum

CN(C)Cc1ccc(-c2cc3c(-c4ccc(CN(C)C)cc4)ccnc3[nH]2)cc1.O=C(O)C(F)(F)F [MMV022224]
peptide levels (hemoglobin catabolism signature) (10 × IC50^72h, 2.5 hr, trophozoites): increased levels of peptides | Log2(fold changes) 1_3-Bisphosphoglyceric acid (metabolite 1_3-Bisphosphoglyceric acid, log2 fold change): 0.0000 | Log2(fold changes) 2-Hydroxy-2-methylbutanedioic acid (metabolite 2-Hydroxy-2-methylbutanedioic acid, log2 fold change): 0.1756 | Log2(fold changes) 2-Isopropylmalic acid (metabolite 2-Isopropylmalic acid, log2 fold change): 0.0000 | Log2(fold changes) 2-dehydro-D-gluconate (metabolite 2-dehydro-D-gluconate, log2 fold change): 0.3564 | Log2(fold changes) 2-oxo-4-methylthiobutanoate (metabolite 2-oxo-4-methylthiobutanoate, log2 fold change): 0.0000 | Log2(fold changes) 2_3-Diphosphoglyceric acid (metabolite 2_3-Diphosphoglyceric acid, log2 fold change): -0.1549 | Log2(fold changes) 3-phosphoglycerate (metabolite 3-phosphoglycerate, log2 fold change): -0.0795 | Log2(fold changes) 3-phosphoserine (metabolite 3-phosphoserine, log2 fold change): -0.1712 | Log2(fold changes) 4-Pyridoxic acid (metabolite 4-Pyridoxic acid, log2 fold change): 0.0566 | Log2(fold changes) 4-aminobutyrate (metabolite 4-aminobutyrate, log2 fold change): -0.2938 | Log2(fold changes) 4-phosphopantetheine (metabolite 4-phosphopantetheine, log2 fold change): -0.5209 | Log2(fold changes) 4-phosphopantothenate (metabolite 4-phosphopantothenate, log2 fold change): 0.0735 | Log2(fold changes) 5-aminopentanoic acid (metabolite 5-aminopentanoic acid, log2 fold change): 0.0000 | Log2(fold changes) 5-methyl-THF (metabolite 5-methyl-THF, log2 fold change): 0.0000 | Log2(fold changes) 5-phosphoribosyl-1-pyrophosphate (metabolite 5-phosphoribosyl-1-pyrophosphate, log2 fold change): -0.7551 | Log2(fold changes) 6-phospho-D-gluconate (metabolite 6-phospho-D-gluconate, log2 fold change): -0.0328 | Log2(fold changes) ADP-D-glucose (metabolite ADP-D-glucose, log2 fold change): 0.0037 | Log2(fold changes) Acetyl-glycine (metabolite Acetyl-glycine, log2 fold change): 0.0000 | Log2(fold changes) Acetyllysine (metabolite Acetyllysine, log2 fold change): 0.0000 | Log2(fold changes) Aminoadipic acid (metabolite Aminoadipic acid, log2 fold change): 0.0000 | Log2(fold changes) CDP (metabolite CDP, log2 fold change): -0.4119 | Log2(fold changes) CDP-choline (metabolite CDP-choline, log2 fold change): 0.2972 | Log2(fold changes) CDP-ethanolamine (metabolite CDP-ethanolamine, log2 fold change): 0.0000 | Log2(fold change) of CMP (metabolite CMP): 0.3976 | Log2(fold change) of CTP (metabolite CTP): -0.2057 | Log2(fold changes) Citraconic acid (metabolite Citraconic acid, log2 fold change): 0.0000 | Log2(fold change) of D-glucarate (metabolite D-glucarate): 0.0159 | Log2(fold change) of D-gluconate (metabolite D-gluconate): -0.4042 | Log2(fold change) of D-glucosamine-1/6-phosphate (metabolite D-glucosamine-1/6-phosphate): 0.0000 | Log2(fold change) of D-sedoheptulose-1/7-phosphate (metabolite D-sedoheptulose-1/7-phosphate): 0.3067 | Log2(fold change) of DL-Pipecolic Acid (metabolite DL-Pipecolic Acid): 0.0000 | Log2(fold change) of DLH (metabolite DLH): 0.8439 | Log2(fold change) of DLS (metabolite DLS): 0.5887 | Log2(fold change) of Decanoyl-CoA (metabolite Decanoyl-CoA): 0.0000 | Log2(fold change) of EV (metabolite EV): 0.0000 | Log2(fold change) of FAD (metabolite FAD): 0.8383 | Log2(fold change) of FMN (metabolite FMN): 0.1361 | Log2(fold change) of G3P/DHAP (metabolite G3P/DHAP): 0.0585 | Log2(fold change) of GDP (metabolite GDP): -0.5545 | Log2(fold change) GMP (metabolite GMP): -0.0052 | Log2(fold change) GTP (metabolite GTP): -0.2843 | Log2(fold change) HVDD (metabolite HVDD): 0.7226 | Log2(fold change) Hexose (metabolite Hexose): 0.3496 | Log2(fold change) Hydroxyisocaproic acid (metabolite Hydroxyisocaproic acid): 0.0000 | Log2(fold change) IDP (metabolite IDP): 0.0000 | Log2(fold change) IMP (metabolite IMP): 0.0372 | Log2(fold change) Inositol (metabolite Inositol): 0.0000 | Log2(fold change) Isopentyl-PP (metabolite Isopentyl-PP): 0.0000 | Log2(fold change) L-arginino-succinate (metabolite L-arginino-succinate): -0.1932 | Log2(fold change) LD (metabolite LD): 0.8668 | Log2(fold change) Myristoyl/tetradecanoyl-CoA (metabolite Myristoyl/tetradecanoyl-CoA): 0.0000 | Log2(fold change) N-Acetyl-L-alanine (metabolite N-Acetyl-L-alanine): -0.6716 | Log2(fold change) N-acetyl-L-ornithine (metabolite N-acetyl-L-ornithine): 0.0000 | Log2(fold change) N-acetyl-glucosamine-1/6-phosphate (metabolite N-acetyl-glucosamine-1/6-phosphate): -0.1039 | Log2(fold change) N-acetyl-glutamate (metabolite N-acetyl-glutamate): -0.3449 | Log2(fold change) N-acetyl-glutamine (metabolite N-acetyl-glutamine): -1.3853 | Log2(fold change) N-carbamoyl-L-aspartate (metabolite N-carbamoyl-L-aspartate): -0.1955 | Log2(fold change) NAD+ (metabolite NAD+): -0.0358 | Log2(fold change) NADH (metabolite NADH): 1.5825 | Log2(fold change) NADP+ (metabolite NADP+): 0.0717 | Log2(fold change) NADPH (metabolite NADPH): 1.3580 | Log2(fold change) O-acetyl-L-serine (metabolite O-acetyl-L-serine): 0.0000 | Log2(fold change) Octoluse 8/1P (metabolite Octoluse 8/1P): 0.5111 | Log2(fold change) Octoluse Bisphosphate (metabolite Octoluse Bisphosphate): -0.3203 | Log2(fold change) PD (metabolite PD): -0.9637 | Log2(fold change) PE (metabolite PE): 0.0520 | Log2(fold change) PEE (metabolite PEE): 0.3860 | Log2(fold change) PEEK (metabolite PEEK): 1.9585 | Log2(fold change) PVNF (metabolite PVNF): 0.5887 | Log2(fold change) Pyroglutamic acid (metabolite Pyroglutamic acid): -0.2368 | Log2(fold change) Pyrophosphate (metabolite Pyrophosphate): 0.0000 | Log2(fold change) Ribose-5-phosphate (metabolite Ribose-5-phosphate): -0.2008 | Log2(fold change) S-adenosyl-L-homocysteine (metabolite S-adenosyl-L-homocysteine): 0.3352 | Log2(fold change) S-adenosyl-L-methioninamine (metabolite S-adenosyl-L-methioninamine): 0.0000 | Log2(fold change) S-adenosyl-L-methionine (metabolite S-adenosyl-L-methionine): 0.0000 | Log2(fold change) S-methyl-5'-thioadenosine (metabolite S-methyl-5'-thioadenosine): 0.2721 | Log2(fold change) SD (metabolite SD): -0.1612 | Log2(fold change) SDL (metabolite SDL): 0.5371 | Log2(fold change) SID (metabolite SID): 0.0000 | Log2(fold change) Sedoheptulose bisphosphate (metabolite Sedoheptulose bisphosphate): 0.0035 | Log2(fold change) Thiamine pyrophosphate (metabolite Thiamine pyrophosphate): -0.0731 | Log2(fold changes) UDP-D-glucose (metabolite UDP-D-glucose, log2 fold change): 0.0091 | Log2(fold changes) UDP-D-glucuronate (metabolite UDP-D-glucuronate, log2 fold change): -0.1151 | Log2(fold changes) UDP-N-acetyl-glucosamine (metabolite UDP-N-acetyl-glucosamine, log2 fold change): -0.0367 | Log2(fold changes) UDP (metabolite UDP, log2 fold change): -0.5308 | Log2(fold changes) UMP (metabolite UMP, log2 fold change): 0.0364 | Log2(fold changes) UTP (metabolite UTP, log2 fold change): -0.1207 | Log2(fold changes) VD (metabolite VD, log2 fold change): 0.0000 | Log2(fold changes) Xanthurenic acid (metabolite Xanthurenic acid, log2 fold change): 0.0000 | Log2(fold changes) a-ketoglutarate (metabolite a-ketoglutarate, log2 fold change): -0.4532 | Log2(fold changes) acetyl-CoA (metabolite acetyl-CoA, log2 fold change): -0.3299 | Log2(fold changes) acetyl-aspartate (metabolite acetyl-aspartate, log2 fold change): -0.2105 | Log2(fold changes) acetylphosphate (metabolite acetylphosphate, log2 fold change): 0.0000 | Log2(fold changes) aconitate (metabolite aconitate, log2 fold change): -0.2855 | Log2(fold changes) adenine (metabolite adenine, log2 fold change): 0.0812 | Log2(fold changes) adenosine 5'-phosphosulfate (metabolite adenosine 5'-phosphosulfate, log2 fold change): 0.0000
